The source of these data is patent US8097761B2, “Process for production of carotenoid” (JX Nippon Oil & Energy Corporation, priority 2006, dated 2012).

The data set is described as follows: Measurement of the concentration of astaxanthin dissolved at room temperature. The data set is classed as physicochemical.

Regarding `CC1=C(/C=C/C(C)=C/C=C/C(C)=C/C=C/C=C(C)/C=C/C=C(C)/C=C/C2=C(C)C(=O)[C@@H](O)CC2(C)C)C(C)(C)C[C@H](O)C1=O` [astaxanthin], the Concentration dissolved (solvent 1,4-dioxane (Ethers), room temperature) is given as 0.3 % (wt./wt.); the Concentration dissolved (solvent Acetone (Ketones), room temperature) is given as 0.02 % (wt./wt.); the Concentration dissolved (solvent Benzene (Hydrocarbons), room temperature) was 0.05 % (wt./wt.); the Concentration dissolved (solvent Chloroform (Halogens), room temperature) was 0.7 % (wt./wt.); the Concentration dissolved (solvent Cyclohexane (Hydrocarbons), room temperature) is 0.001 % (wt./wt.); the Concentration dissolved (solvent Cyclohexanone (Ketones), room temperature) is 0.2 % (wt./wt.). For the same molecule, the Concentration dissolved is reported as 2.3 % (wt./wt.) (solvent Dichloromethane (Halogens), room temperature); 0.002 % (wt./wt.) (solvent Ethanol (Alcohols), room temperature); 0.003 % (wt./wt.) (solvent Hexane (Hydrocarbons), room temperature); 0.002 % (wt./wt.) (solvent Isopropanol (Alcohols), room temperature); 0.003 % (wt./wt.) (solvent Methanol (Alcohols), room temperature); 0.03 % (wt./wt.) (solvent Methylethylketone (Ketones), room temperature). Further, the Concentration dissolved (solvent Methylisobutylketone (Ketones), room temperature) was 0.02 % (wt./wt.); the Concentration dissolved (solvent Tetrahydrofuran (Ethers), room temperature) is 0.7 % (wt./wt.); the Concentration dissolved (solvent Toluene (Hydrocarbons), room temperature) was 0.03 % (wt./wt.); the Concentration dissolved (solvents other than halogen solvents, room temperature (summary of Table 1)) is listed as at most 1%.
